EC50 data for 26 compounds are collected here from patent publication US9796713B2, “Tricyclic compounds as alpha-7 nicotinic acetylcholine receptor ligands” (BRISTOL-MYERS SQUIBB COMPANY, priority 2014, dated 2017).

T1 sequence (Q05941 23-502): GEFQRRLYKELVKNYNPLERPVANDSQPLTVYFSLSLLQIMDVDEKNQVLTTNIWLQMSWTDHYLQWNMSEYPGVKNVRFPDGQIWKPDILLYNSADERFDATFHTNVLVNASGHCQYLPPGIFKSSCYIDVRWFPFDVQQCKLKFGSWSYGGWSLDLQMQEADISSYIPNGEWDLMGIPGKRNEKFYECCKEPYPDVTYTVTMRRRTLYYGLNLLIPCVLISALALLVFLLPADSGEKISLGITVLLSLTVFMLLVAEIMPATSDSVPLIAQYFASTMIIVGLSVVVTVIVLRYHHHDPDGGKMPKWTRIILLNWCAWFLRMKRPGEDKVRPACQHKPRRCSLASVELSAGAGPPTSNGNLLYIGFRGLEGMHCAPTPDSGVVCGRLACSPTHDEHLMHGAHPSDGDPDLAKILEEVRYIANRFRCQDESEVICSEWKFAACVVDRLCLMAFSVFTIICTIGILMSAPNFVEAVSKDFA

One assay has as its target T1, α-7 nicotinic ACh receptor ion channel (Rattus norvegicus, UniProt Q05941).
T1 construct: expressed in transfected cells
Description: FLIPR Ca2+-sensitive fluorescence assay of α7 nicotinic acetylcholine receptor channel function (agonist activity) in HEK 293 cells. It is filed as cell-based. Particulars: Table 1; Ca2+ flux, HEK-293 cells expressing the channel. On the procedure:
I) α7 Nicotinic Acetycholine Receptor Binding. Membranes were prepared for binding using HEK293 cells stably expressing the rat α7 nicotinic acetycholine receptor (rat α7 nAChR). Cells were homogenized at 4° C. in hypotonic lysis buffer consisting of 10 mM Tris (pH 7.4), 5 mM EDTA and protease inhibitors and centrifuged at 32000×g for 20 minutes. The pellet was washed once in membrane wash buffer consisting of 50 mM Tris (pH 7.4), 1 mM EDTA and protease inhibitors and centrifuged at 32000×g for 20 minutes. This pellet was then resuspended in assay buffer consisting 50 mM KH2PO4 (pH 7.4 at 25° C.), 1 mM EDTA, 0.005% Triton-X 100 and 0.1% (v/v) Sigma Protease Inhibitor Cocktail. Aliquots were then frozen in dry ice/ethanol and kept at −80° C. until the day of the assay. II) A Ca^2+-Sensitive, Fluorescence-Based Assay α-7 for Nicotinic Acetylcholine Receptor Channel Function in Mammalian Cells (“FLIPR”). Summary: Lead compounds are evaluated for agonist activity at α-7, α3β4, α4αβ2, and α1β1δ1ε sub-types of nicotinic ACh receptor ion channels expressed in mammalian HEK 293 cells. Agonist potency and efficacy values are determined from kinetic fluorescence Ca^2+ influx measurements made using a 384 well FLIPR (Fluorescence Image Plate Reader). The utility of fluorescent indicators for measuring changes in intracellular divalent cation concentrations, particularly Ca^2+, for drug discovery endeavors is well documented (Rudiger, R., et al., Nature Reviews, 2003, 4:579-586; Gonzalez J. E., et al., Receptors and Channels, 2002, 8:283-295). In this assay, channel expressing HEK cell lines seeded in 384 well assay plates are loaded with a membrane permeant fluorescent Ca^2+ indicator dye, whose 510 nm green emission signal increases in response to elevation of intracellular Ca^2+ concentration. The basal fluorescence from the cells is monitored in real time, followed by the acute addition of test compounds. If the compound is an agonist at any of the non-selective cation channels, the latter open and allow the movement of extracellular Ca^2+ ions into the cell cytoplasm, where they bind to the Ca^2+ indicator dye, and produce an increase in fluorescence output signal, which is detected by a cooled CCD imaging camera.
Materials and Methods: Reagents: The acetomethoxy (AM) ester of the Ca^2+ indicator dye Fluo-4 was obtained from InVitrogen, (Carlsbad, Calif.). Acetylcholine and all buffer constituents were purchased from Sigma Chemical Company, St. Louis, Mo. G418 and Minimal Essential Medium were purchased from InVitrogen Life Technologies, Carlsbad, Calif. Fetal bovine serum was purchased from (InVitrogen, Carlsbad, Calif.).
Cell Culture: HEK-293 cells were grown in Minimal Essential Medium containing 10% (v/v) fetal bovine serum at 37° C. in a 5% CO2 incubator. HEK-293 cells stably expressing the ion channels were grown in the same medium with the addition of 500 μg/ml G418.
Ca^2+ flux assays of Ca^2+ channels expressed in HEK-293 cells: HEK-293 cells expressing the ion channels of interest were plated in 384 well, black-walled, clear-bottomed, poly-D-lysine coated plates at a density of ˜20,000 cells/well in 20 μl of Minimal Essential Medium containing 10% (v/v) fetal bovine serum and incubated for 2 days at 29° C. in a 5% CO2 incubator. Prior to assay, cells were loaded with the Fluo-4 AM ester. Cell loading was accomplished by removing the culture medium and replacing it with 30 μl/well of the AM ester of the dye (5 μM) mixed with Hanks Balanced Salt Solution (#14175-095) containing 20 mM HEPES, 2.5 mM probenecid, 0.5 mM CaCl2, 1 mM MgCl2 and 10 μM atropine. Dye loading was allowed to proceed for 90 minutes at room temperature at which time the dye loading solution was removed and replaced with 40 μl/well of Hanks buffer. Cells loaded with dye were loaded onto a FLIPR384 (Molecular Devices, Sunnyvale, Calif.). Fluo-4 dye was excited using the 488 nm line of an argon laser. Emission was filtered using a 540+/−30 nm bandpass filter. […]
(In general: Calcium assays in cells follow changes in intracellular calcium, usually with a dye or a luminescent sensor.)
By EC50 is commonly meant the midpoint of the concentration-response curve. As to `O=C(c1n[nH]c2ccccc12)N1C2CC3CCN(C2)CC31` (centres unmarked) [Example 1, (hexahydro-2,6-methanopyrrolo[2,3-c]pyridin-1(2H)-yl)(1H-indazol-3-yl)methanone], the EC50 came to 73 nM.

`O=C(c1n[nH]c2ccc(Cl)cc12)N1C2CC3CCN(C2)CC31` (centres unmarked) [Example 2, (5-chloro-1H-indazol-3-yl)(hexahydro-2,6-methanopyrrolo[2,3-c]pyridin-1(2H)-yl)methanone] yielded an EC50 of 590 nM.

`O=C(c1n[nH]c2ccc(Br)cc12)N1C2CC3CCN(C2)CC31` (centres unmarked) [Example 3, (5-bromo-1H-indazol-3-yl)(hexahydro-2,6-methanopyrrolo[2,3-c]pyridin-1(2H)-yl)methanone] gave an EC50 of 700 nM.

In turn, `O=C(c1cc2cccc(Cl)c2s1)N1C2CC3CCN(C2)CC31` (centres unmarked) [Example 4, (7-chlorobenzo[b]thiophen-2-yl)(hexahydro-2,6-methanopyrrolo[2,3-c]pyridin-1(2H)-yl)methanone] had an EC50 of over 100000 nM.

`O=C(c1cc2ccccc2o1)N1C2CC3CCN(C2)CC31` (centres unmarked) [Example 5, Benzofuran-2-yl(hexahydro-2,6-methanopyrrolo[2,3-c]pyridin-1(2H)-yl)methanone] returned an EC50 of over 100000 nM.

`O=C(c1cc2ccccc2s1)N1C2CC3CCN(C2)CC31` (centres unmarked) [Example 6, Benzo[b]thiophen-2-yl(hexahydro-2,6-methanopyrrolo[2,3-c]pyridin-1(2H)-yl)methanone] came in with an EC50 of 51000 nM.

For `O=C(c1n[nH]c2cc(Cl)ccc12)N1C2CC3CCN(C2)CC31` (centres unmarked) [Example 7, (6-chloro-1H-indazol-3-yl)(hexahydro-2,6-methanopyrrolo[2,3-c]pyridin-1(2H)-yl)methanone], the response was half-maximal at 57 nM (EC50).

Take `Cn1nc(C(=O)N2C3CC4CCN(C3)CC42)c2ccccc21` (centres unmarked) [Example 8, (Hexahydro-2,6-methanopyrrolo[2,3-c]pyridin-1(2H)-yl)(1-methyl-1H-indazol-3-yl)methanone]: the EC50 was over 100000 nM.

Consider `COc1ccc2c(C(=O)N3C4CC5CCN(C4)CC53)n[nH]c2c1` (centres unmarked) [Example 9, (6-methoxy-1H-indazol-3-yl)(hexahydro-2,6-methanopyrrolo[2,3-c]pyridin-1(2H)-yl)methanone], for which the EC50 was 260 nM.

For `COc1ccc2[nH]nc(C(=O)N3C4CC5CCN(C4)CC53)c2c1` (centres unmarked) [Example 10, (5-methoxy-1H-indazol-3-yl)(hexahydro-2,6-methanopyrrolo[2,3-c]pyridin-1(2H)-yl)methanone], the EC50 is over 100000 nM.

Consider `O=C(c1nsc2ccccc12)N1C2CC3CCN(C2)CC31` (centres unmarked) [Example 11, Benzo[d]isothiazol-3-yl(hexahydro-2,6-methanopyrrolo[2,3-c]pyridin-1(2H)-yl)methanone], for which the EC50 came out at 7100 nM.

`O=C(c1cc2c(Cl)cccc2s1)N1C2CC3CCN(C2)CC31` (centres unmarked) [Example 12, (4-chlorobenzo[b]thiophen-2-yl)(hexahydro-2,6-methanopyrrolo[2,3-c]pyridin-1(2H)-yl)methanone] showed an EC50 of over 100000 nM.

Take `O=C(c1ccc(Cl)cc1)N1C2CC3CCN(C2)CC31` (centres unmarked) [Example 13, (4-chlorophenyl)(hexahydro-2,6-methanopyrrolo[2,3-c]pyridin-1(2H)-yl)methanone]: the EC50 was over 100000 nM.

The compound `Cn1cc(C(=O)N2C3CC4CCN(C3)CC42)c2ccccc21` (centres unmarked) [Example 14, (Hexahydro-2,6-methanopyrrolo[2,3-c]pyridin-1(2H)-yl)(1-methyl-1H-indol-3-yl)methanone] registered an EC50 of over 100000 nM.

`COc1cccc2[nH]nc(C(=O)N3C4CC5CCN(C4)CC53)c12` (centres unmarked) [Example 15, (4-methoxy-1H-indazol-3-yl)(hexahydro-2,6-methanopyrrolo[2,3-c]pyridin-1(2H)-yl)methanone]: the EC50 was over 50000 nM.

Still in this assay, the particulars now being: Table 2; Ca2+ flux, HEK-293 cells expressing the channel.
For the compound `O=C(c1n[nH]c2cc(Cl)ccc12)N1[C@H]2C[C@@H]3CC[N@](C2)C[C@@H]31` [Example 17, (6-chloro-1H-indazol-3-yl)((2S,3aS,6R,7aR)-hexahydro-2,6-methanopyrrolo[2,3-c]pyridin-1(2H)-yl)methanone], the EC50 worked out at 30 nM.

In the case of `O=C(c1n[nH]c2ccccc12)N1[C@H]2C[C@@H]3CC[N@](C2)C[C@@H]31` [Example 18, ((2S,3aS,6R,7aR)-hexahydro-2,6-methanopyrrolo[2,3-c]pyridin-1(2H)-yl)(1H-indazol-3-yl)methanone], the EC50 worked out at 55 nM.

Regarding `O=C(c1cc(-c2ccccc2)[nH]n1)N1[C@H]2C[C@@H]3CC[N@](C2)C[C@@H]31` [Example 19, ((2S,3aS,6R,7aR)-hexahydro-2,6-methanopyrrolo[2,3-c]pyridin-1(2H)-yl)(5-phenyl-1H-pyrazol-3-yl)methanone], the EC50 was over 100000 nM.

The compound `O=C(c1cc(C2CC2)[nH]n1)N1[C@H]2C[C@@H]3CC[N@](C2)C[C@@H]31` [Example 20, ((2S,3aS,6R,7aR)-hexahydro-2,6-methanopyrrolo[2,3-c]pyridin-1(2H)-yl)(5-cyclopropyl-1H-pyrazol-3-yl)methanone] displayed an EC50 of 26000 nM.

As to `O=C(c1n[nH]c2cc(F)ccc12)N1[C@H]2C[C@@H]3CC[N@](C2)C[C@@H]31` [Example 21, (6-fluoro-1H-indazol-3-yl)((2S,3aS,6R,7aR)-hexahydro-2,6-methanopyrrolo[2,3-c]pyridin-1(2H)-yl)methanone], it took 80 nM to reach a half-maximal effect (EC50).

In the case of `O=C(c1n[nH]c2c(Cl)cccc12)N1[C@H]2C[C@@H]3CC[N@](C2)C[C@@H]31` [Example 22, (7-Chloro-1H-indazol-3-yl)((2S,3aS,6R,7aR)-hexahydro-2,6-methanopyrrolo[2,3-c]pyridin-1(2H)-yl)methanone], the EC50 amounted to 3600 nM.

In turn, `Cc1ccc2c(C(=O)N3[C@H]4C[C@@H]5CC[N@](C4)C[C@@H]53)n[nH]c2c1` [Example 23, (6-methyl-1H-indazol-3-yl)((2S,3aS,6R,7aR)-hexahydro-2,6-methanopyrrolo[2,3-c]pyridin-1(2H)-yl)methanone] displayed an EC50 of 39 nM.

On to `O=C(c1n[nH]c2ncccc12)N1[C@H]2C[C@@H]3CC[N@](C2)C[C@@H]31` [Example 24, ((2S,3aS,6R,7aR)-hexahydro-2,6-methanopyrrolo[2,3-c]pyridin-1(2H)-yl)(1H-pyrazolo[3,4-b]pyridin-3-yl)methanone], for which it took 1300 nM to reach a half-maximal effect (EC50).

Staying with this assay, now noted: Table 3; Ca2+ flux, HEK-293 cells expressing the channel.
For the compound `O=C(c1n[nH]c2cc(Cl)ccc12)N1[C@@H]2C[C@H]3CC[N@@](C2)C[C@H]31` [Example 16, (6-chloro-1H-indazol-3-yl)((2R,3aR,6S,7aS)-hexahydro-2,6-methanopyrrolo[2,3-c]pyridin-1(2H)-yl)methanone], the EC50 was 86 nM.

`O=C(c1nccc2ccccc12)N1[C@@H]2C[C@H]3CC[N@@](C2)C[C@H]31` [Example 25, ((2R,3aR,6S,7aS)-hexahydro-2,6-methanopyrrolo[2,3-c]pyridin-1(2H)-yl)(isoquinolin-1-yl)methanone] returned an EC50 of 45000 nM.

The compound `O=C(c1n[nH]c2cc(F)ccc12)N1[C@@H]2C[C@H]3CC[N@@](C2)C[C@H]31` [Example 26, (6-fluoro-1H-indazol-3-yl)((2R,3aR,6S,7aS)-hexahydro-2,6-methanopyrrolo[2,3-c]pyridin-1(2H)-yl)methanone] had an EC50 of 430 nM.
